What follows are compounds tested against BTK (Homo sapiens (Human), UniProt Q06187) (assay: BTK enzymatic activity assay (Caliper-based kinase assay)). Conditions: human recombinant BTK 0.5 nM, ATP 16 μM, 3 h room temperature.
Assay type: biochemical
Description: A Caliper-based kinase assay (Caliper Life Sciences, Hopkinton, Mass.) was used to measure inhibition of BTK kinase activity of a compound of the present disclosure. […] The reaction was then terminated with EDTA, final concentration 20 mM and the phosphorylated reaction product was quantified on a Caliper Desktop Profiler (Caliper LabChip 3000). […] This value is presented as the IC50.

Chain of BTK (Q06187 whole entry): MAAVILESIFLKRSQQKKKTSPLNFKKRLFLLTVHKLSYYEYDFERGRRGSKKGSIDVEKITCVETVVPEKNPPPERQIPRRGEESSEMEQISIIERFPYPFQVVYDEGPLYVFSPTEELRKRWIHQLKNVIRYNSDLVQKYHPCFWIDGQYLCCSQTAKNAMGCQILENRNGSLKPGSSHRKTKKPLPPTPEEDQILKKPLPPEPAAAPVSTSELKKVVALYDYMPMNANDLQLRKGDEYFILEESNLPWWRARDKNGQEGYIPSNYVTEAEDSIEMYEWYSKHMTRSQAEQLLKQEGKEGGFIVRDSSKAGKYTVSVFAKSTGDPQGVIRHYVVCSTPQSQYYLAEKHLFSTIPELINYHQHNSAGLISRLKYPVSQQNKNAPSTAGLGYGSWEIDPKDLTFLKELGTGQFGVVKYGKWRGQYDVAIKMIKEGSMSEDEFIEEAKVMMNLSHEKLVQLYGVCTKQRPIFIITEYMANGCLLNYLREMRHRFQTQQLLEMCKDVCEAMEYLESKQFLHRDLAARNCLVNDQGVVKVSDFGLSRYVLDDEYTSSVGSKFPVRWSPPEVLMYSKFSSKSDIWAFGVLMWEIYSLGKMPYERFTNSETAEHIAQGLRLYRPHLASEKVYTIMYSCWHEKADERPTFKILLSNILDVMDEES

IC50 [nM]	SMILES
1.2	C=C(F)C(=O)N1CCC[C@@H](n2c(=O)n(-c3ccc(Oc4ccccc4)cc3)c3c(N)nccc32)C1 [Compound 67, (R)-4-amino-1-(1-(2-fluoroacryloyl)piperidin-3-yl)-3-(4-phenoxyphenyl)-1H-imidazo[4,5-c]pyridin-2(3H)-one]
2.9	CC1(C=C(C#N)C(=O)N2CCC[C@@H](n3c(=O)n(-c4ccc(Oc5ccccc5)cc4)c4c(N)ncnc43)C2)CCN(C2COC2)CC1 [Compound 32, (R)-2-(3-(6-amino-8-oxo-7-(4-phenoxyphenyl)-7H-purin-9(8H)-yl)piperidine-1-carbonyl)-3-(4-methyl-1-(oxetan-3-yl)piperidin-4-yl)acrylonitrile]
4.8	Cc1cc(-n2c(=O)n([C@@H]3CCCN(C(=O)C(C#N)=CC(C)(C)N4CCN(C5COC5)CC4)C3)c3ccnc(N)c32)ccc1Oc1ccccc1 [Compound 28, (R)-2-(3-(4-amino-3-(3-methyl-4-phenoxyphenyl)-2-oxo-2,3-dihydro-1H-imidazo[4,5-c]pyridin-1-yl)piperidine-1-carbonyl)-4-methyl-4-(4-(oxetan-3-yl)piperazin-1-yl)pent-2-enenitrile]
1.5	CC(C)(C=C(C#N)C(=O)N1CCC[C@@H](n2c(=O)n(-c3ccc(Oc4ccccc4)cc3)c3c(N)nccc32)C1)N1CCN(C2(C)COC2)CC1 [Compound 30, (R)-2-(3-(4-amino-2-oxo-3-(4-phenoxyphenyl)-2,3-dihydro-1H-imidazo[4,5-c]pyridin-1-yl)piperidine-1-carbonyl)-4-methyl-4-(4-(3-methyloxetan-3-yl)piperazin-1-yl)pent-2-enenitrile]
3.7	CC(C)(C=C(C#N)C(=O)N1CCC[C@@H](n2c(=O)n(-c3ccc(Oc4ccccc4)cc3)c3c(N)ncnc32)C1)N1CCN(C2COC2)CC1 [Compound 31, (R)-2-(3-(6-amino-8-oxo-7-(4-phenoxyphenyl)-7H-purin-9(8H)-yl)piperidine-1-carbonyl)-4-methyl-4-(4-(oxetan-3-yl)piperazin-1-yl)pent-2-enenitrile]
4.6	CC(C)(C=C(C#N)C(=O)N1CCC[C@@H](n2c(=O)n(-c3ccc(Oc4ccccc4)cc3)c3c(N)nccc32)C1)N1CCNC(=O)C1 [Compound 21, (R)-2-(3-(4-amino-2-oxo-3-(4-phenoxyphenyl)-2,3-dihydro-1H-imidazo[4,5-c]pyridin-1-yl)piperidine-1-carbonyl)-4-methyl-4-(3-oxopiperazin-1-yl)pent-2-enenitrile]
22.5	CC(C)(C)OC(=O)N1CCN(C(C)(C)C=C(C#N)C(=O)N2CCC[C@@H](n3c(=O)n(-c4ccc(Oc5ccccc5)cc4)c4c(N)nccc43)C2)CC1 [Compound 43, (R)-tert-butyl 4-(5-(3-(4-amino-2-oxo-3-(4-phenoxyphenyl)-2,3-dihydro-1H-imidazo[4,5-c]pyridin-1-yl)piperidin-1-yl)-4-cyano-2-methyl-5-oxopent-3-en-2-yl)piperazine-1-carboxylate]
12.8	CN1CCN(C(=O)C(C)(C)C=C(C#N)C(=O)N2CCC[C@@H](n3c(=O)n(-c4ccc(Oc5ccccc5)cc4)c4c(N)nccc43)C2)CC1 [Compound 49, (R)-2-(3-(4-amino-2-oxo-3-(4-phenoxyphenyl)-2,3-dihydro-1H-imidazo[4,5-c]pyridin-1-yl)piperidine-1-carbonyl)-4,4-dimethyl-5-(4-methylpiperazin-1-yl)-5-oxopent-2-enenitrile]
15.7	CN(C1COC1)C(C)(C)C=C(C#N)C(=O)N1CCC[C@H]1Cn1c(=O)n(-c2ccc(Oc3ccccc3)cc2)c2c(N)nccc21 [Compound 36, (S)-2-(2-((4-amino-2-oxo-3-(4-phenoxyphenyl)-2,3-dihydro-1H-imidazo[4,5-c]pyridin-1-yl)methyl)pyrrolidine-1-carbonyl)-4-methyl-4-(methyl(oxetan-3-yl)amino)pent-2-enenitrile]
17.8	CN1CCN(c2cccc(C(C)(C)C=C(C#N)C(=O)N3CCC[C@@H](n4c(=O)n(-c5ccc(Oc6ccccc6)cc5)c5c(N)nccc54)C3)n2)CC1 [Compound 54, (R)-2-(3-(4-amino-2-oxo-3-(4-phenoxyphenyl)-2,3-dihydro-1H-imidazo[4,5-c]pyridin-1-yl)piperidine-1-carbonyl)-4-methyl-4-(6-(4-methylpiperazin-1-yl)pyridin-2-yl)pent-2-enenitrile]
5.3	N#CC(=CC1CC[S+]([O-])CC1)C(=O)N1CCC[C@@H](n2c(=O)n(-c3ccc(Oc4ccccc4)cc3)c3c(N)nccc32)C1 (stereo partly drawn) [Compound 39, (R)-2-(3-(4-amino-2-oxo-3-(4-phenoxyphenyl)-2,3-dihydro-1H-imidazo[4,5-c]pyridin-1-yl)piperidine-1-carbonyl)-3-(1-oxidotetrahydro-2H-thiopyran-4-yl)acrylonitrile]
7.8	CN1CCN(c2ccnc(C(C)(C)C=C(C#N)C(=O)N3CCC[C@@H](n4c(=O)n(-c5ccc(Oc6ccccc6)cc5)c5c(N)nccc54)C3)n2)CC1 [Compound 56, (R)-2-(3-(4-amino-2-oxo-3-(4-phenoxyphenyl)-2,3-dihydro-1H-imidazo[4,5-c]pyridin-1-yl)piperidine-1-carbonyl)-4-methyl-4-(4-(4-methylpiperazin-1-yl)pyrimidin-2-yl)pent-2-enenitrile]
8.3	CN(C)C(=O)C(C)(C)C=C(C#N)C(=O)N1CCC[C@@H](n2c(=O)n(-c3ccc(Oc4ccccc4)cc3)c3c(N)nccc32)C1 [Compound 50, (R)-5-(3-(4-amino-2-oxo-3-(4-phenoxyphenyl)-2,3-dihydro-1H-imidazo[4,5-c]pyridin-1-yl)piperidin-1-yl)-4-cyano-N,N,2,2-tetramethyl-5-oxopent-3-enamide]
4.2	N#CC(=CC1[C@H]2COC[C@@H]12)C(=O)N1CCC[C@@H](n2c(=O)n(-c3ccc(Oc4ccccc4)cc3)c3c(N)nccc32)C1 (stereo partly drawn) [Compound 53, 2-((R)-3-(4-amino-2-oxo-3-(4-phenoxyphenyl)-2,3-dihydro-1H-imidazo[4,5-c]pyridin-1-yl)piperidine-1-carbonyl)-3-((1R,5S)-3-oxabicyclo[3.1.0]hexan-6-yl)acrylonitrile]
5.4	CC(C)(C=C(C#N)C(=O)N1CCC[C@@H](n2c(=O)n(-c3ccc(Oc4cccc(F)c4F)cc3)c3c(N)nccc32)C1)N1CCN(C2COC2)CC1 [Compound 25, (R)-2-(3-(4-amino-3-(4-(2,3-difluorophenoxy)phenyl)-2-oxo-2,3-dihydro-1H-imidazo[4,5-c]pyridin-1-yl)piperidine-1-carbonyl)-4-methyl-4-(4-(oxetan-3-yl)piperazin-1-yl)pent-2-enenitrile]
2.4	CCC1(C=C(C#N)C(=O)N2CCC[C@@H](n3c(=O)n(-c4ccc(Oc5ccccc5)cc4)c4c(N)nccc43)C2)CCOCC1 [Compound 65, (R)-2-(3-(4-amino-2-oxo-3-(4-phenoxyphenyl)-2,3-dihydro-1H-imidazo[4,5-c]pyridin-1-yl)piperidine-1-carbonyl)-3-(4-ethyltetrahydro-2H-pyran-4-yl)acrylonitrile]
2.4	CO[C@@H]1CCN(C(C)(C)C=C(C#N)C(=O)N2CCC[C@@H](n3c(=O)n(-c4ccc(Oc5ccccc5)cc4)c4c(N)nccc43)C2)C1 [Compound 60, 2-((R)-3-(4-amino-2-oxo-3-(4-phenoxyphenyl)-2,3-dihydro-1H-imidazo[4,5-c]pyridin-1-yl)piperidine-1-carbonyl)-4-((R)-3-methoxypyrrolidin-1-yl)-4-methylpent-2-enenitrile]
3.1	CC(C)(C=C(C#N)C(=O)N1CCC[C@@H](n2c(=O)n(-c3ccc(Oc4ccccc4)cc3)c3c(N)nccc32)C1)c1ccccn1 [Compound 55, (R)-2-(3-(4-amino-2-oxo-3-(4-phenoxyphenyl)-2,3-dihydro-1H-imidazo[4,5-c]pyridin-1-yl)piperidine-1-carbonyl)-4-methyl-4-(pyridin-2-yl)pent-2-enenitrile]
25.9	CC#CC(=O)N1CCC[C@H]1Cn1c(=O)n(-c2ccc(Oc3ccccc3)cc2)c2c(N)nccc21 [Compound 23, (S)-4-amino-1-((1-(but-2-ynoyl)pyrrolidin-2-yl)methyl)-3-(4-phenoxyphenyl)-1H-imidazo[4,5-c]pyridin-2(3H)-one]
23.1	CN1CCN(C(C)(C)C=C(C#N)C(=O)N2CCC[C@H]2Cn2c(=O)n(-c3ccc(Oc4ccccc4)cc3)c3c(N)nccc32)CC1 [Compound 34, (S)-2-(2-((4-amino-2-oxo-3-(4-phenoxyphenyl)-2,3-dihydro-1H-imidazo[4,5-c]pyridin-1-yl)methyl)pyrrolidine-1-carbonyl)-4-methyl-4-(4-methylpiperazin-1-yl)pent-2-enenitrile]
1.8	CC(C)(C=C(C#N)C(=O)N1CCC[C@@H](n2c(=O)n(-c3ccc(Oc4ccccc4)cc3)c3c(N)nccc32)C1)N1CCn2cnnc2C1 [Compound 29, (R)-2-(3-(4-amino-2-oxo-3-(4-phenoxyphenyl)-2,3-dihydro-1H-imidazo[4,5-c]pyridin-1-yl)piperidine-1-carbonyl)-4-(5,6-dihydro-[1,2,4]triazolo[4,3-a]pyrazin-7(8H)-yl)-4-methylpent-2-enenitrile]
3.5	CC(C)(C=C(C#N)C(=O)N1CCC[C@@H](n2c(=O)n(-c3ccc(Oc4ccccc4)c(F)c3)c3c(N)nccc32)C1)N1CCN(C2COC2)CC1 [Compound 26, (R)-2-(3-(4-amino-3-(3-fluoro-4-phenoxyphenyl)-2-oxo-2,3-dihydro-1H-imidazo[4,5-c]pyridin-1-yl)piperidine-1-carbonyl)-4-methyl-4-(4-(oxetan-3-yl)piperazin-1-yl)pent-2-enenitrile]

Source: patent publication US9688676B2, “Tyrosine kinase inhibitors” (PRINCIPIA BIOPHARMA INC., priority 2015, dated 2017)
